# Measurements as given in patent publication US20010012854A1, “MULTICATALYTIC PROTEASE INHIBITORS FOR USE AS ANTI-TUMOR AGENTS” (priority 1997, published 2001).
# Key:
# [1] = tested on: Jurkat cells transfected with a control vector; experiment: Apoptotic nuclear changes (Hoechst staining) in Jurkat cells transfected with control vector; assay type: cell-based, human
# Protocol: b. Cell culture. Human Jurkat T and HL-60 cells were grown in RPMI 1640 (Life Technologies, Inc.) supplemented with 10% fetal calf serum (Sigma), 100 units/ml of penicillin, 100 μg/ml of streptomycin and 2mM L-glutamine (growth medium). Jurkat T. cells overexpressing the Bcl-2 oncoprotein or vector alone (provided by Dr. D. Johnson, University of Pittsburgh, Pa.) were grown in the same growth medium with […] G418. Human cancer cell lines of breast (MCF-7, MDA-MB-231), prostate (DU145, PC3) and osteosarcoma (U2-OS), obtained from American Type Culture Collection (ATCC. Rockville, Md.)), were also grown in the RPMI growth medium. Human oral (SCC-25; from ATCC) and brain (SNB-19; Welch, W. C., et al. In Vitro Cell. Dev. Biol., 31:610-616, 1995) cancer cell lines, and normal (WI-38) and SV40-transformed human fibroblasts (WI-38 VA-13; from ATCC) were grown in DMEM medium containing 10% fetal calf serum, penicillin, streptomycin and L-glutamine.
# (§1) d. Flow cytometry nuclear staining and DNA fragmentation assays. DNA content analysis using flow cytometry was performed as described previously (Nicoletti, I., et al. J. Immunol. Methods 139:271-279, 1992). To assay nuclear morphology, cells were washed with PBS, fixed with 70% ethanol for 1 h, and stained with Hoechst 33258 (1 mM) for 30 min. The nuclear morphology of cells was visualized by fluorescence microscope (OLYMPUS BH2). DNA fragmentation was assayed as described previously (Grant, S., et al. Cancer Res. 52:6270-6278, 1992).
# The apoptosis-inducing potency of Compound A was compared with two standard chemotherapeutic anti-cancer agents, etoposide and cisplatin. […] By comparison, treatment with 50 μM etoposide for 8 h induced only ˜47% of these cells to undergo apoptosis (FIG. 3, panels c vs. a). Treatment of 10 μM Compound A, but not etoposide or cisplatin, induced apoptosis in human prostate, breast, tongue and brain cancer cells and also in SV40 DNA virus-transformed human fibroblasts (see FIGS. 5-7).
# [2] = tested on: Human prostate cancer PC-3 cells; experiment: Detachment and apoptotic nuclear changes in PC-3 cells; assay type: cell-based; details: PC-3, 10 μM, 36 h
# Protocol: (§2) c. Treatment of cells with MCP inhibitor. Cells were treated with a specified MCP Inhibitor, a standard anticancer agent (etoposide or cisplatin), or DMSO (vehicle). During this process, morphological changes and cellular detachment (for attached cell lines) were monitored. At each time point, cells were harvested, and used for measurement of apoptosis and other biochemical events. In Example 1, infra, involving YVAD-CMK, Compound A was first added to Jurkat T cells. This was followed immediately by dividing the cells into multiple tissue culture flasks. YVAD-CMK was then added to an indicated concentration.
# as §1
# Human prostate cancer PC-3 cells were treated with 10 μM Compound A, etoposide, or an equal percentage of vehicle (DMSO), followed by separation of the attached and detached cell populations. Both attached and detached cell populations were then used for detection of apoptotic nuclear changes. After 36 h treatment with Compound A, ˜50% of PC-3 cells became detached.
# [3] = tested on: human breast cancer MDA-MB-231 cells; experiment: Detachment and apoptotic nuclear changes in MDA-MB-231 cells; assay type: cell-based; details: MDA-MB-231, 24 h
# Protocol: as §2, §1
# Detachment was also found in at least half of human breast cancer MDA-MB-231 and MCF-7 cells, after exposure to Compound A for 24 h.
# [4] = tested on: oral aquamous carcinoma cell line SCC-25; experiment: Detachment and apoptosis in SCC-25 cells; assay type: cell-based, human
# Protocol: as §2, §1
# [5] = tested on: glioblastoma cell line SNB-19; experiment: Detachment and apoptosis in SNB-19 cells; assay type: cell-based, human
# Protocol: as §2, §1
# [6] = tested on: osteosarcoma cell line U2OS; experiment: Detachment and apoptosis in U2OS cells; assay type: cell-based, human; details: U2OS (data not shown)
# Protocol: as §2, §1
# [7] = tested on: SV40-transformed human fibroblasts (WI-38 VA13); experiment: Detachment, apoptotic nuclear changes and PARP cleavage in SV40-transformed fibroblasts; assay type: cell-based
# Protocol: as §2, §1
# (§3) e. Whole cell extracts and western blot assay. To prepare whole cell extracts, cells were washed with PBS, and homogenized in lysis buffer (50 mM Tris, pH 8.0, 5 mM EDTA, 150 mM NaCl, 0.5% Nonidet P-40, 0.5 mM PMSF and 0.5 mM dithiothreitol). Following 30 min rocking at 4° C., the lysates were centrifuged and the supernatants were collected as whole cell extracts. The protein samples were then analyzed by sodium dodecyl sulfate-6% polyacrylamide gel electrophoresis (20-60 μg protein per lane) followed by the enhanced chemiluminescence Western blot assay using specific antibodies to CPP32, PARP, p21, p27 or RB.
# (§4) Whether Compound A has, any selectivity in induction of apoptosis between transformed and normal cells was investigated. Normal human fibroblast cell line (WI-38) and its SV40-transformed derivative (WI-38 VA13) were utilized. […]
# [8] = tested on: Normal human fibroblast cell line (WI-38); experiment: Detachment, apoptotic nuclear changes and PARP cleavage in normal fibroblasts; assay type: cell-based
# Protocol: as §2, §1, §3, §4
# [9] = tested on: p21 and p27 in human breast cancer MDA-MB-231 cells; experiment: Western blot of p21 and p27 levels in MDA-MB-231 cells; assay type: cell-based; details: MDA-MB-231, 15 μM, 6 hours
# Protocol: as §3
# Additionally, a band of 70 kDa whih may represent ubiquinated p70 was also observed. In contrast, etoposide caused only limited accumulation of p21 (≦4-fold) and p27 (≦2-fold) at 17 hours when used at concentrations up to 100 μM.
# [10] = tested on: p21 and p27 in normal WI-38 fibroblasts; experiment: Western blot of p21 and p27 levels in normal WI-38 fibroblasts; assay type: cell-based, human; details: normal WI-38, 10 μM, 22 hours
# Protocol: as §3
# (§5) The accumulation of p21 and p27 following treatment with Compound A was also evaluated in SV-40 transformed and normal WI-38 fibroblasts.
# [11] = tested on: p21 and p27 in SV-40 transformed WI-38 fibroblasts; experiment: Western blot of p21 and p27 levels in SV-40 transformed WI-38 fibroblasts; assay type: cell-based, human; details: SV-40 transformed WI-38, 10 μM, 22 hours
# Protocol: as §3, §5
compound,measurement,setting,value
CC(C)C[C@@H](C=O)NC(=O)[C@@H](CCCNC(=N)N[N+](=O)[O-])NC(=O)C(CCCCCCCCN1C(=O)c2ccccc2C1=O)C1CCCC1 (some centres unmarked) [Compound A],Cells exhibiting apoptotic nuclear morphology,"[1]; 15 μM, 8 h",30%
same,Cells exhibiting apoptotic nuclear changes,"[1]; 30 μM, 3.5 h",~100%
same,Detached cells,[2],~50%
same,Nuclear morphology (apoptotic condensation and fragmentation),[2],All the detached PC-3 cells exhibited typical apoptotic nuclear condensation and fragmentation
same,Apoptosis by nuclear staining,[3],apoptotic morphology in all of the detached and most of the attached cells
same,Detached cells,[3],at least half
same,Induction of cellular detachment and apoptosis,[4],induced cellular detachment and apoptosis
same,Induction of cellular detachment and apoptosis,[5],induced cellular detachment and apoptosis
same,Induction of cellular detachment and apoptosis,[6],induced cellular detachment and apoptosis
same,PARP cleavage,"[7]; SV40-transformed WI-38, total cell population",observed only in the transformed
same,Detachment and apoptotic nuclear changes,"[7]; WI-38 VA13, 10 μM, up to 22 h",induced a detachment in the majority of SV40-transformed cells
same,Detachment and apoptotic nuclear changes,"[8]; normal WI-38, 10 μM, up to 22 h",did not induce either detachment or apoptotic nuclear morphology
same,PARP cleavage,"[8]; normal WI-38, total cell population",not in the normal
same,Increase in level of p21,[9],45 fold
same,Levels of p27,[9],slightly increased
same,p27 levels,[10],increased only slightly
same,Elevation of p27 levels,[11],8 fold
